The record followed here is ChEMBL document CHEMBL3351528, “Targeting dopamine D3 and serotonin 5-HT1A and 5-HT2A receptors for developing effective antipsychotics: synthesis, biological characterization, and behavioral studies” (J Med Chem, 2014).

Data set [1] concerns Mus musculus. The data set can be described thus: Anxiolytic activity in mouse at 10 mg/kg, ip dosed 30 mins before test by marble burying method. It is filed as functional, organism-based. Details: dose 10 mg/kg.
The subject of data set [2] is Mus musculus. Description: Effect on spontaneous locomotor activity in mouse at 10 mg/kg, ip. Format: ADME, organism-based. Details: dose 10 mg/kg, route intraperitoneal. The following applies: in vivo.
The test system of data set [3] is Heart. Description: Cardiotoxicity in Langendorff-perfused Sprague-Dawley rat heart assessed as heart rate at 0.01 uM (reference value: 296.25 +/- 13.61 bpm). It is filed as toxicity, tissue-based.
Data set [4] relates to Heart. The data set can be described thus: Cardiotoxicity in Langendorff-perfused Sprague-Dawley rat heart assessed as heart rate at 0.1 uM (reference value: 296.25 +/- 13.61 bpm). Format: toxicity, tissue-based.
Data set [5] relates to Heart. The data set can be described thus: Cardiotoxicity in Langendorff-perfused Sprague-Dawley rat heart assessed as heart rate at 1 uM (reference value: 296.25 +/- 13.61 bpm). It is filed as toxicity, tissue-based.
Data set [6] concerns Heart. The data set can be described thus: Cardiotoxicity in Langendorff-perfused Sprague-Dawley rat heart assessed as heart rate at 10 uM (reference value: 296.25 +/- 13.61 bpm). It is filed as toxicity, tissue-based.
Data set [7] deals with Heart. Description: Cardiotoxicity in Langendorff-perfused Sprague-Dawley rat heart assessed as cycle length time at 0.01 uM (reference value: 203.61 +/- 9.17 ms). Format: toxicity, tissue-based.
Data set [8] deals with Heart. The data set can be described thus: Cardiotoxicity in Langendorff-perfused Sprague-Dawley rat heart assessed as cycle length time at 0.1 uM (reference value: 203.61 +/- 9.17 ms). It is filed as toxicity, tissue-based.
Data set [9] has as its system Heart. The data set can be described thus: Cardiotoxicity in Langendorff-perfused Sprague-Dawley rat heart assessed as cycle length time at 1 uM (reference value: 203.61 +/- 9.17 ms). Format: toxicity, tissue-based.
Data set [10] relates to Heart. Description: Cardiotoxicity in Langendorff-perfused Sprague-Dawley rat heart assessed as cycle length time at 10 uM (reference value: 203.61 +/- 9.17 ms). It is filed as toxicity, tissue-based.
Data set [11] deals with Heart. The data set can be described thus: Cardiotoxicity in Langendorff-perfused Sprague-Dawley rat heart assessed as atrioventricular conduction time at 0.01 uM (reference value: 41.98 +/- 2.55 ms). It is filed as toxicity, tissue-based.
The test system of data set [12] is Heart. The data set can be described thus: Cardiotoxicity in Langendorff-perfused Sprague-Dawley rat heart assessed as atrioventricular conduction time at 0.1 uM (reference value: 41.98 +/- 2.55 ms). Format: toxicity, tissue-based.
Data set [13] concerns Heart. The data set can be described thus: Cardiotoxicity in Langendorff-perfused Sprague-Dawley rat heart assessed as atrioventricular conduction time at 1 uM (reference value: 41.98 +/- 2.55 ms). Format: toxicity, tissue-based.
The test system of data set [14] is Heart. Description: Cardiotoxicity in Langendorff-perfused Sprague-Dawley rat heart assessed as atrioventricular conduction time at 10 uM (reference value: 41.98 +/- 2.55 ms). It is filed as toxicity, tissue-based.
For data set [15], the system named is Heart. Description: Cardiotoxicity in Langendorff-perfused Sprague-Dawley rat heart assessed as intraventricular conduction time at 0.01 uM (reference value: 12.33 +/- 0.29 ms). Format: toxicity, tissue-based, Cardiac ventricle.
Data set [16] deals with Heart. Description: Cardiotoxicity in Langendorff-perfused Sprague-Dawley rat heart assessed as intraventricular conduction time at 0.1 uM (reference value: 12.33 +/- 0.29 ms). Format: toxicity, tissue-based, Cardiac ventricle.
Data set [17] concerns Heart. Description: Cardiotoxicity in Langendorff-perfused Sprague-Dawley rat heart assessed as intraventricular conduction time at 1 uM (reference value: 12.33 +/- 0.29 ms). It is filed as toxicity, tissue-based, Cardiac ventricle.
Data set [18] deals with Heart. The data set can be described thus: Cardiotoxicity in Langendorff-perfused Sprague-Dawley rat heart assessed as intraventricular conduction time at 10 uM (reference value: 12.33 +/- 0.29 ms). It is filed as toxicity, tissue-based, Cardiac ventricle.
Data set [19] concerns Heart. Description: Cardiotoxicity in Langendorff-perfused Sprague-Dawley rat heart assessed as time duration of ventricular depolarization and repolarization at 0.01 uM (reference value: 71.61 +/- 4.21 ms). Format: toxicity, tissue-based.
In data set [20] the test system is Heart. Description: Cardiotoxicity in Langendorff-perfused Sprague-Dawley rat heart assessed as time duration of ventricular depolarization and repolarization at 0.1 uM (reference value: 71.61 +/- 4.21 ms). Format: toxicity, tissue-based.
Data set [21] deals with Heart. Description: Cardiotoxicity in Langendorff-perfused Sprague-Dawley rat heart assessed as time duration of ventricular depolarization and repolarization at 1 uM (reference value: 71.61 +/- 4.21 ms). It is filed as toxicity, tissue-based.
The subject of data set [22] is Heart. The data set can be described thus: Cardiotoxicity in Langendorff-perfused Sprague-Dawley rat heart assessed as time duration of ventricular depolarization and repolarization at 10 uM (reference value: 71.61 +/- 4.21 ms). Format: toxicity, tissue-based.
In data set [23] the test system is Heart. Description: Cardiotoxicity in Langendorff-perfused Sprague-Dawley rat heart assessed as corrected time duration of ventricular depolarization and repolarization at 0.01 uM (reference value: 159.41 +/- 11.21 ms). Format: toxicity, tissue-based.
Data set [24] has as its system Heart. Description: Cardiotoxicity in Langendorff-perfused Sprague-Dawley rat heart assessed as corrected time duration of ventricular depolarization and repolarization at 0.1 uM (reference value: 159.41 +/- 11.21 ms). It is filed as toxicity, tissue-based.
For data set [25], the system named is Heart. The data set can be described thus: Cardiotoxicity in Langendorff-perfused Sprague-Dawley rat heart assessed as corrected time duration of ventricular depolarization and repolarization at 1 uM (reference value: 159.41 +/- 11.21 ms). Format: toxicity, tissue-based.
Data set [26] deals with Heart. Description: Cardiotoxicity in Langendorff-perfused Sprague-Dawley rat heart assessed as corrected time duration of ventricular depolarization and repolarization at 10 uM (reference value: 159.41 +/- 11.21 ms). It is filed as toxicity, tissue-based.
Data set [27] concerns Mus musculus. The data set can be described thus: Toxicity in mouse assessed as induction of memory impairment by measuring […] to enter dark compartment at 10 mg/kg, po administered 30 mins before training by passive avoidance test. Format: organism-based. The following applies: in vivo, 0.5 h. The arrangement: dose 10 mg/kg, route oral.
For data set [28], the system named is Mus musculus. The data set can be described thus: Antipsychotic-like activity in NMRI mouse assessed as reduction in […]-induced locomotor activity at 1 mg/kg, sc dosed 15 to 30 mins before administration of methamphetamine measured for 60 mins. It is filed as functional, organism-based. The arrangement: dose 1 mg/kg.
Data set [29] is filed under the species Mus musculus. Conditions: in vivo, sc, 0.5 h.
Description: Effect on spontaneous exploratory locomotor activity in sc dosed NMRI mouse measured for 30 mins with activity counts each 5 mins
For data set [30], the species on record is Mus musculus. Description: animal or person. Conditions: NMRI, sc.
Description: Antipsychotic-like activity in sc dosed NMRI mouse assessed as reduction in methamphetamine-induced locomotor activity dosed 15 to 30 mins before administration of methamphetamine measured for 60 mins
For data set [31], the species on record is Mus musculus. Description: animal or person. The following applies: NMRI, sc. This is another data set of the same source.
Description: Antipsychotic-like activity in sc dosed NMRI mouse assessed as reduction in PCP-induced locomotor activity dosed 15 to 30 mins before administration of methamphetamine measured for 60 mins

Active and inactive are the calls of the source. The calls are words filed in the database; no cut-off is given here.

For orientation: ED50 means the dose that gives a 50% effect, or the effect in half of the subjects. Higher therefore signals weaker potency.

`CNC1=Nc2ccc(Cl)cc2C(c2ccccc2)=[N+]([O-])C1.Cl` [CHLORDIAZEPOXIDE HYDROCHLORIDE]: the result in data set [1] was Active. In addition, the Activity result in data set [2] is on record as “Non-toxic”.

Regarding `Cl.O=C(NCCCCN1CCN(c2ccccc2)CC1)c1ccc2ncccc2c1`, the Activity in data set [3] was 302.2 bpm; in data set [4], 308.58 bpm; in data set [5] it was 297.7 bpm; in [6], 280.67 bpm. For the same molecule, the Time is 199.43 ms in data set [7]; 194.96 ms in data set [8]; 204.53 ms in data set [9]; 218.07 ms in [10]; 41.95 ms in data set [11]; 42.32 ms in data set [12]. Further, the Time is reported as 41.51 ms in data set [13]; 44.51 ms in [14]; 13.17 ms in data set [15]; 12.7 ms in [16]; 13.38 ms in data set [17]; 14.24 ms in data set [18]. For the same molecule, the Time in [19] came to 70.61 ms; in data set [20], 71.4 ms; in data set [21] it was 71.03 ms; in data set [22] it was 73.96 ms; in [23], 158.61 ms; in [24], 162.06 ms. Also, the Time is recorded as 158.14 ms in data set [25] and 159.76 ms in data set [26].

As to `CN1CCN(C2=Nc3cc(Cl)ccc3Nc3ccccc32)CC1` [CLOZAPINE], the Activity result in [27] was “Toxic”. Besides, the result in data set [28] was Active. The ED50 in data set [29] was 2.4 mg/kg; in [30], 1.1 mg/kg; in data set [31], 2.5 mg/kg.
